Reference: paper PMC5218480 (PLoS ONE, 2017)

Tested on: MV-4-11 cells
Assay: Gene expression microarray analysis (Affymetrix PrimeView) and GSEA
Assay type: cell-based, human
Design: RFU PODN (11730768_x_at) / Fold change /veh PODN (11730768_x_at) / RFU LINC00158 (11744669_a_at) / Fold change /veh LINC00158 (11744669_a_at) / RFU DUSP10 (11751237_a_at) / Fold change /veh DUSP10 (11751237_a_at) / RFU ID3 (11757404_x_at) / Fold change /veh ID3 (11757404_x_at) / RFU PLEKHG5 (11737974_s_at) / Fold change /veh PLEKHG5 (11737974_s_at) / RFU LRRC4B (11730491_at) / Fold change /veh LRRC4B (11730491_at) / RFU GIMAP4 (11747438_a_at) / Fold change /veh GIMAP4 (11747438_a_at) / RFU KRT8 (11758183_x_at) / Fold change /veh KRT8 (11758183_x_at) / RFU CNN1 (11734310_a_at) / Fold change /veh CNN1 (11734310_a_at) / RFU VPS37D (11726825_at) / Fold change /veh VPS37D (11726825_at) / RFU C10orf10 (11716522_x_at) / Fold change /veh C10orf10 (11716522_x_at) / RFU KIR2DL2 /// KIR2DL4 /// KIR2DL5A /// KIR2DL5B /// KIR2DS1 /// KIR2DS2 /// KIR2DS3 /// KIR2DS4 /// KIR3DL3 /// KIR3DL3 /// KIR3DS1 (11738374_at) / Fold change /veh KIR2DL2 /// KIR2DL4 /// KIR2DL5A /// KIR2DL5B /// KIR2DS1 /// KIR2DS2 /// KIR2DS3 /// KIR2DS4 /// KIR3DL3 /// KIR3DL3 /// KIR3DS1 (11738374_at) / RFU C1QL1 (11718748_at) / Fold change /veh C1QL1 (11718748_at) / RFU TMPRSS4 (11747572_a_at) / Fold change /veh TMPRSS4 (11747572_a_at) / RFU HAMP (11756126_x_at) / Fold change /veh HAMP (11756126_x_at) / RFU RNFT2 (11725882_a_at) / Fold change /veh RNFT2 (11725882_a_at) / RFU NR4A2 (11747474_a_at) / Fold change /veh NR4A2 (11747474_a_at) / RFU ABCC12 (11746883_a_at) / Fold change /veh ABCC12 (11746883_a_at) / RFU TMEM136 (11760407_x_at) / Fold change /veh TMEM136 (11760407_x_at) / RFU CLDN22 /// WWC2 (11732394_at) / Fold change /veh CLDN22 /// WWC2 (11732394_at) / RFU HLA-DPB1 (11760878_x_at) / Fold change /veh HLA-DPB1 (11760878_x_at) / RFU SPINT1 (11716480_a_at) / Fold change /veh SPINT1 (11716480_a_at) / RFU GAP43 (11754022_s_at) / Fold change /veh GAP43 (11754022_s_at) / RFU A4GNT (11735810_at) / Fold change /veh A4GNT (11735810_at) / RFU PRB3 (11715151_x_at) / Fold change /veh PRB3 (11715151_x_at) / RFU TUBB4B (11761932_at) / Fold change /veh TUBB4B (11761932_at) / RFU CAPN14 (11732068_a_at) / Fold change /veh CAPN14 (11732068_a_at) / RFU TMCC2 (11721928_a_at) / Fold change /veh TMCC2 (11721928_a_at) / RFU IRGQ (11745062_a_at) / Fold change /veh IRGQ (11745062_a_at) / RFU FAM174B (11720279_a_at) / Fold change /veh FAM174B (11720279_a_at) / RFU TMPRSS4 (11748680_a_at) / Fold change /veh TMPRSS4 (11748680_a_at) / RFU FAM212B (11763350_a_at) / Fold change /veh FAM212B (11763350_a_at) / RFU PLEKHG5 (11743358_a_at) / Fold change /veh PLEKHG5 (11743358_a_at) / RFU ZSCAN30 (11745921_a_at) / Fold change /veh ZSCAN30 (11745921_a_at) / RFU CMKLR1 (11741424_a_at) / Fold change /veh CMKLR1 (11741424_a_at) / RFU LOC101060620 /// MAPK8IP1 (11723275_at) / Fold change /veh LOC101060620 /// MAPK8IP1 (11723275_at) / RFU SPTSSB (11747773_x_at) / Fold change /veh SPTSSB (11747773_x_at) / RFU PRSS12 (11739890_at) / Fold change /veh PRSS12 (11739890_at) / RFU BIN1 (11741810_x_at) / Fold change /veh BIN1 (11741810_x_at) / RFU WNT11 (11732464_a_at) / Fold change /veh WNT11 (11732464_a_at) / RFU C10orf10 (11716521_a_at) / Fold change /veh C10orf10 (11716521_a_at) / RFU C5orf56 (11738089_at) / Fold change /veh C5orf56 (11738089_at) / RFU CYB561 (11721691_x_at) / Fold change /veh CYB561 (11721691_x_at) / RFU ANKRD19P (11752326_a_at) / Fold change /veh ANKRD19P (11752326_a_at) / RFU OR2T12 /// OR2T33 /// OR2T8 (11738714_s_at) / Fold change /veh OR2T12 /// OR2T33 /// OR2T8 (11738714_s_at) / RFU VCAN (11748164_a_at) / Fold change /veh VCAN (11748164_a_at) / RFU JSRP1 (11732532_at) / Fold change /veh JSRP1 (11732532_at) / RFU KRTAP10-11 (11738290_x_at) / Fold change /veh KRTAP10-11 (11738290_x_at) / RFU MYO3A (11730013_a_at) / Fold change /veh MYO3A (11730013_a_at) / RFU EBF3 (11725865_a_at) / Fold change /veh EBF3 (11725865_a_at) / RFU CAMK2N1 (11719241_x_at) / Fold change /veh CAMK2N1 (11719241_x_at) / RFU C5orf56 (11738088_a_at) / Fold change /veh C5orf56 (11738088_a_at) / RFU OLFML3 (11715873_a_at) / Fold change /veh OLFML3 (11715873_a_at) / RFU LOC100653217 /// NTM (11731650_a_at) / Fold change /veh LOC100653217 /// NTM (11731650_a_at) / RFU MAPK11 (11762145_a_at) / Fold change /veh MAPK11 (11762145_a_at) / RFU FIZ1 (11724087_x_at) / Fold change /veh FIZ1 (11724087_x_at) / RFU OASL (11726364_x_at) / Fold change /veh OASL (11726364_x_at) / RFU SOX15 (11748057_x_at) / Fold change /veh SOX15 (11748057_x_at) / RFU CD79A (11719716_a_at) / Fold change /veh CD79A (11719716_a_at) / RFU HIST1H1D (11736915_at) / Fold change /veh HIST1H1D (11736915_at) / RFU CASKIN2 (11723855_a_at) / Fold change /veh CASKIN2 (11723855_a_at) / RFU LOC730098 (11760151_x_at) / Fold change /veh LOC730098 (11760151_x_at) / RFU OR4N2 (11742367_at) / Fold change /veh OR4N2 (11742367_at) / RFU PRRT2 (11749266_a_at) / Fold change /veh PRRT2 (11749266_a_at) / RFU SNX32 (11753110_a_at) / Fold change /veh SNX32 (11753110_a_at) / RFU CDHR5 (11726645_a_at) / Fold change /veh CDHR5 (11726645_a_at) / RFU RCAN1 (11760418_a_at) / Fold change /veh RCAN1 (11760418_a_at) / RFU FAM167A (11723789_a_at) / Fold change /veh FAM167A (11723789_a_at) / RFU FAM26E (11764081_at) / Fold change /veh FAM26E (11764081_at) / RFU ISYNA1 (11749810_s_at) / Fold change /veh ISYNA1 (11749810_s_at) / RFU ACY1 (11761880_at) / Fold change /veh ACY1 (11761880_at) / RFU 11764098_at / Fold change /veh 11764098_at / RFU SAMD14 (11745864_x_at) / Fold change /veh SAMD14 (11745864_x_at) / RFU NPB (11741838_a_at) / Fold change /veh NPB (11741838_a_at) / RFU TMPRSS6 (11731388_a_at) / Fold change /veh TMPRSS6 (11731388_a_at) / RFU KRTAP10-2 (11738614_at) / Fold change /veh KRTAP10-2 (11738614_at) / RFU ARHGAP8 /// PRR5-ARHGAP8 (11727945_x_at) / Fold change /veh ARHGAP8 /// PRR5-ARHGAP8 (11727945_x_at) / RFU KRTAP5-7 /// NADSYN1 (11734609_at) / Fold change /veh KRTAP5-7 /// NADSYN1 (11734609_at) / RFU RASL12 (11751679_a_at) / Fold change /veh RASL12 (11751679_a_at) / RFU CDKN2B (11736163_a_at) / Fold change /veh CDKN2B (11736163_a_at) / RFU PRF1 (11729649_at) / Fold change /veh PRF1 (11729649_at) / RFU, ZNF638 /// ZNF638-IT1 / Fold change vs veh, ZNF638 /// ZNF638-IT1 / RFU, PANK3 / Fold change vs veh, PANK3 / RFU, SH3YL1 / Fold change vs veh, SH3YL1 / RFU, ZEB2 / Fold change vs veh, ZEB2 / RFU, NRIP1 / Fold change vs veh, NRIP1 / RFU, PTTG1IP / Fold change vs veh, PTTG1IP / RFU, CAPN2 / Fold change vs veh, CAPN2 / RFU, MED14 / Fold change vs veh, MED14 / RFU, SNORA58 / Fold change vs veh, SNORA58 / RFU, C1orf63 / Fold change vs veh, C1orf63 / RFU, LRRFIP1 / Fold change vs veh, LRRFIP1 / RFU, NDUFAF7 / Fold change vs veh, NDUFAF7 / RFU, SLC12A2 / Fold change vs veh, SLC12A2 / RFU, IBTK / Fold change vs veh, IBTK / RFU, ESF1 / Fold change vs veh, ESF1 / Fold change vs veh, TMEM50B / RFU, TAOK1 / Fold change vs veh, TAOK1 / RFU, ACBD3 / Fold change vs veh, ACBD3 / RFU, TMA16 / Fold change vs veh, TMA16 / RFU, RWDD3 / Fold change vs veh, RWDD3 / RFU, BCAT1 / Fold change vs veh, BCAT1 / RFU, EDEM3 / Fold change vs veh, EDEM3 / RFU, TMEM33 / Fold change vs veh, TMEM33 / RFU, WDR75 / Fold change vs veh, WDR75 / RFU, AHCTF1 / Fold change vs veh, AHCTF1 / RFU, TFRC / Fold change vs veh, TFRC / RFU, ZDHHC17 / Fold change vs veh, ZDHHC17 / RFU, NOM1 / Fold change vs veh, NOM1 / RFU, ARL8B / Fold change vs veh, ARL8B / RFU, ZBTB11 / Fold change vs veh, ZBTB11 / RFU, TAMM41 / Fold change vs veh, TAMM41 / RFU, KIAA1704 /// LOC100996395 / Fold change vs veh, KIAA1704 /// LOC100996395 / RFU, ING1 / Fold change vs veh, ING1 / RFU, TRMT61B / Fold change vs veh, TRMT61B / RFU, FUBP3 / Fold change vs veh, FUBP3 / RFU, TP53 / Fold change vs veh, TP53 / RFU, TNKS2 / Fold change vs veh, TNKS2 / RFU, ZFP14 / Fold change vs veh, ZFP14 / RFU, ACTR2 / Fold change vs veh, ACTR2 / RFU, PPP3R1 / Fold change vs veh, PPP3R1 / RFU, PIK3R1 / Fold change vs veh, PIK3R1 / RFU, HNRNPA1 / Fold change vs veh, HNRNPA1 / RFU, RNF170 / Fold change vs veh, RNF170 / RFU, ZNF28 / Fold change vs veh, ZNF28 / RFU, RNGTT / Fold change vs veh, RNGTT / RFU, OGT / Fold change vs veh, OGT / RFU, BRD1 / Fold change vs veh, BRD1 / RFU, MARS / Fold change vs veh, MARS / RFU, ZNF655 / Fold change vs veh, ZNF655 / RFU, FAHD1 / Fold change vs veh, FAHD1 / RFU, BDP1 / Fold change vs veh, BDP1 / RFU, LRRCC1 / Fold change vs veh, LRRCC1 / RFU, ARID1A / Fold change vs veh, ARID1A / RFU, ZNF146 / Fold change vs veh, ZNF146 / RFU, ZNF330 / Fold change vs veh, ZNF330 / RFU, GPN3 / Fold change vs veh, GPN3 / RFU, C9orf123 / Fold change vs veh, C9orf123 / RFU, N4BP2L2 / Fold change vs veh, N4BP2L2 / RFU, ARFIP1 / Fold change vs veh, ARFIP1 / RFU, FAM179B / Fold change vs veh, FAM179B / RFU, BCL10 / Fold change vs veh, BCL10 / RFU, UHRF1BP1L / Fold change vs veh, UHRF1BP1L / RFU, BET1 / Fold change vs veh, BET1 / RFU, CNOT2 / Fold change vs veh, CNOT2 / RFU, ZNF268 / Fold change vs veh, ZNF268 / Fold change vs veh, ZNF507 / RFU, DGCR2 / Fold change vs veh, DGCR2 / RFU, WDSUB1 / Fold change vs veh, WDSUB1 / Fold change vs veh, HSP90B1 /// MIR3652 / RFU, ADSS / Fold change vs veh, ADSS / RFU, GK / Fold change vs veh, GK / RFU, ZNF148 / Fold change vs veh, ZNF148 / RFU, TAF9 / Fold change vs veh, TAF9 / RFU, SLC1A5 / Fold change vs veh, SLC1A5 / RFU, SLMO2 / Fold change vs veh, SLMO2 / RFU, ABCC4 / Fold change vs veh, ABCC4 / RFU, LOC101060439 /// RAP1B / Fold change vs veh, LOC101060439 /// RAP1B / RFU, RFX7 / Fold change vs veh, RFX7 / RFU, GTPBP10 / Fold change vs veh, GTPBP10 / RFU, CNEP1R1 / Fold change vs veh, CNEP1R1 / RFU, BIVM-ERCC5 /// ERCC5 / Fold change vs veh, BIVM-ERCC5 /// ERCC5 / RFU, ILF3 / Fold change vs veh, ILF3 / RFU 11762660_at / Fold change /veh 11762660_at / RFU VCAN (11757783_s_at) / Fold change /veh VCAN (11757783_s_at) / RFU DDX43 (11728927_at) / Fold change /veh DDX43 (11728927_at) / RFU KRT8 (11758188_x_at) / Fold change /veh KRT8 (11758188_x_at) / RFU NKD1 (11759106_at) / Fold change /veh NKD1 (11759106_at) / RFU SRD5A1 (11742802_a_at) / Fold change /veh SRD5A1 (11742802_a_at) / RFU TPSAB1 /// TPSB2 (11721975_s_at) / Fold change /veh TPSAB1 /// TPSB2 (11721975_s_at) / RFU GSTM3 (11746129_a_at) / Fold change /veh GSTM3 (11746129_a_at) / RFU IL23R (11737362_x_at) / Fold change /veh IL23R (11737362_x_at) / RFU TMEM51 (11727254_a_at) / Fold change /veh TMEM51 (11727254_a_at) / RFU PIWIL2 (11732686_x_at) / Fold change /veh PIWIL2 (11732686_x_at) / RFU ORM1 (11744905_x_at) / Fold change /veh ORM1 (11744905_x_at) / RFU CCDC152 (11743942_at) / Fold change /veh CCDC152 (11743942_at) / RFU ECM1 (11717891_a_at) / Fold change /veh ECM1 (11717891_a_at) / RFU IL23R (11748794_a_at) / Fold change /veh IL23R (11748794_a_at) / RFU TNFAIP8L3 (11732012_x_at) / Fold change /veh TNFAIP8L3 (11732012_x_at) / RFU MBOAT4 (11741988_at) / Fold change /veh MBOAT4 (11741988_at) / RFU 11764193_at / Fold change /veh 11764193_at / RFU TMEM53 (11763286_at) / Fold change /veh TMEM53 (11763286_at) / RFU MAGEB2 (11727129_at) / Fold change /veh MAGEB2 (11727129_at) / RFU TMEM200A (11744735_a_at) / Fold change /veh TMEM200A (11744735_a_at) / RFU CCDC152 (11751479_a_at) / Fold change /veh CCDC152 (11751479_a_at) / RFU FAM211A (11726209_a_at) / Fold change /veh FAM211A (11726209_a_at) / RFU RGS16 (11746705_a_at) / Fold change /veh RGS16 (11746705_a_at) / RFU VCAN (11755009_s_at) / Fold change /veh VCAN (11755009_s_at) / RFU RHOB (11743442_s_at) / Fold change /veh RHOB (11743442_s_at) / RFU RGS16 (11720943_a_at) / Fold change /veh RGS16 (11720943_a_at) / RFU RGS16 (11720944_at) / Fold change /veh RGS16 (11720944_at) / RFU, VPS4B / Fold change vs veh, VPS4B / RFU, CREB1 / Fold change vs veh, CREB1 / RFU, DNAJC13 / Fold change vs veh, DNAJC13 / RFU, GNAQ / Fold change vs veh, GNAQ / RFU, CDK5R1 / Fold change vs veh, CDK5R1 / RFU, ZRANB3 / Fold change vs veh, ZRANB3 / RFU, CUL4A / Fold change vs veh, CUL4A / RFU, CCNY / Fold change vs veh, CCNY / RFU, UFL1 / Fold change vs veh, UFL1 / RFU, COG3 / Fold change vs veh, COG3 / RFU, DIAPH2 / Fold change vs veh, DIAPH2 / RFU, SKA2 / Fold change vs veh, SKA2 / RFU, AFF3 / Fold change vs veh, AFF3 / RFU, LMF1 / Fold change vs veh, LMF1 / RFU, IPO11 / Fold change vs veh, IPO11 / RFU, DFFB / Fold change vs veh, DFFB / RFU, FOXP1 / Fold change vs veh, FOXP1 / RFU, CARD8 / Fold change vs veh, CARD8 / RFU, STRN3 / Fold change vs veh, STRN3 / RFU, ADK / Fold change vs veh, ADK / RFU, RASSF2 / Fold change vs veh, RASSF2 / RFU, WIPF1 / Fold change vs veh, WIPF1 / RFU, LARP1B / Fold change vs veh, LARP1B / RFU, RASA1 / Fold change vs veh, RASA1 / RFU, RB1 / Fold change vs veh, RB1 / RFU, PPFIA1 / Fold change vs veh, PPFIA1 / RFU, MAT2A / Fold change vs veh, MAT2A / RFU, CCT5 / Fold change vs veh, CCT5 / RFU, WDR92 / Fold change vs veh, WDR92 / RFU, CUX1 / Fold change vs veh, CUX1 / RFU, TTC7A / Fold change vs veh, TTC7A / RFU, TMEM135 / Fold change vs veh, TMEM135 / RFU, DEPTOR / Fold change vs veh, DEPTOR / RFU, CPM / Fold change vs veh, CPM / RFU, DNAJB6 / Fold change vs veh, DNAJB6 / RFU, CACNA2D3 / Fold change vs veh, CACNA2D3 / RFU, DTX4 / Fold change vs veh, DTX4 / RFU, TFCP2 / Fold change vs veh, TFCP2 / RFU, GMCL1 /// GMCL1P1 / Fold change vs veh, GMCL1 /// GMCL1P1 / RFU, AEBP2 / Fold change vs veh, AEBP2 / RFU, SNHG1 /// SNORD22 /// SNORD25 /// SNORD26 /// SNORD27 /// SNORD28 /// SNORD29 /// SNORD31 / Fold change vs veh, SNHG1 /// SNORD22 /// SNORD25 /// SNORD26 /// SNORD27 /// SNORD28 /// SNORD29 /// SNORD31 / Fold change (Aza/veh), C12orf56 (ProbeSet 11735607_a_at) / Fold change (ACY-1035/veh), C12orf56 (ProbeSet 11735607_a_at) / Fold change (Aza/veh), FGFR1OP (ProbeSet 11751329_s_at) / Fold change (ACY-1035/veh), FGFR1OP (ProbeSet 11751329_s_at) / Fold change (Aza/veh), VPS36 (ProbeSet 11739960_a_at) / Fold change (ACY-1035/veh), VPS36 (ProbeSet 11739960_a_at) / RFU SYPL1 (11715823_x_at) / Fold change /veh SYPL1 (11715823_x_at) / RFU IGFBP7 (11715501_s_at) / Fold change /veh IGFBP7 (11715501_s_at) / RFU REEP3 (11722064_at) / Fold change /veh REEP3 (11722064_at) / RFU IGLL1 (11728026_x_at) / Fold change /veh IGLL1 (11728026_x_at): dose or concentration left out as unconfirmed
Details: MV-4-11 cells, 48 hours

Compound: Nc1ncn([C@@H]2O[C@H](CO)[C@@H](O)[C@H]2O)c(=O)n1 [azacitidine]
- RFU 11764098_at: 18.12 RFU
